Laboratory results reported in ChEMBL document CHEMBL3098003, “Structure-based design of 2-aminopyridine oxazolidinones as potent and selective tankyrase inhibitors” (ACS Med Chem Lett, 2013).

Legend:
Tankyrase 1/2 [1] = target: T1, Tankyrase 1/2 (Homo sapiens, UniProt Q9H2K2+O95271); assay: Inhibition of tankyrase in human SW480 cells assessed as degradation of total beta-catenin after 40 to 48 hrs; assay type: cell-based
T1 sequence (Q9H2K2 whole entry): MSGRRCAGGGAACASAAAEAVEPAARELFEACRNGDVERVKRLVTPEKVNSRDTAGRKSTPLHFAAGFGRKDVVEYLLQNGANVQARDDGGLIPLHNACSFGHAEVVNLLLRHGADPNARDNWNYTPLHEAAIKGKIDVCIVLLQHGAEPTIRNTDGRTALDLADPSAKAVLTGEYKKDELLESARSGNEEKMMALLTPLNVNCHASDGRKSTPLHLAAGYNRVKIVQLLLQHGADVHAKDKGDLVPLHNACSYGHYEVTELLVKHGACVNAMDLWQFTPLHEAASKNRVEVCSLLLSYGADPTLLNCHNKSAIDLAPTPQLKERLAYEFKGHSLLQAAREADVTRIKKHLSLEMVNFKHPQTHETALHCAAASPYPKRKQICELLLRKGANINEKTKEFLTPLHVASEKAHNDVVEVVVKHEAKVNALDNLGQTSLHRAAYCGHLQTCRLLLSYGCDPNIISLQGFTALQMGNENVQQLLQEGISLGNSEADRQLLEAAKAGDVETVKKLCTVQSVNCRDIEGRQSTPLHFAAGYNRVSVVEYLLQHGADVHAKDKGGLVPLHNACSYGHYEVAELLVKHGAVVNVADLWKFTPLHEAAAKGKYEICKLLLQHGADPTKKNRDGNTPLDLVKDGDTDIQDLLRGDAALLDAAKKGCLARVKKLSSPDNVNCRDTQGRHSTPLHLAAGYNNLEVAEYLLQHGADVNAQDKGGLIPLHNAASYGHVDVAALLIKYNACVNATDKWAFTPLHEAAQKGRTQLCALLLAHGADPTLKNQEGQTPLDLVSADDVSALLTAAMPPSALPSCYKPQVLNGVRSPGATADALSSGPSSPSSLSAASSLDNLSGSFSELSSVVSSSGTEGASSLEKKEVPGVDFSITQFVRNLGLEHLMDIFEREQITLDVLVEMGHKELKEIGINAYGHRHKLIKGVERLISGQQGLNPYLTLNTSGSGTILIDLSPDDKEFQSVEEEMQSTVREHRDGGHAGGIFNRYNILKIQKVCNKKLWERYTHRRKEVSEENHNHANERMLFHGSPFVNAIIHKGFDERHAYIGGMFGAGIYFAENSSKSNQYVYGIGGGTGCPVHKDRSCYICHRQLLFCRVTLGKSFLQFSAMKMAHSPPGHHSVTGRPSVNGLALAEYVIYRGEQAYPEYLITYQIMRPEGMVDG
T1 sequence (O95271 whole entry): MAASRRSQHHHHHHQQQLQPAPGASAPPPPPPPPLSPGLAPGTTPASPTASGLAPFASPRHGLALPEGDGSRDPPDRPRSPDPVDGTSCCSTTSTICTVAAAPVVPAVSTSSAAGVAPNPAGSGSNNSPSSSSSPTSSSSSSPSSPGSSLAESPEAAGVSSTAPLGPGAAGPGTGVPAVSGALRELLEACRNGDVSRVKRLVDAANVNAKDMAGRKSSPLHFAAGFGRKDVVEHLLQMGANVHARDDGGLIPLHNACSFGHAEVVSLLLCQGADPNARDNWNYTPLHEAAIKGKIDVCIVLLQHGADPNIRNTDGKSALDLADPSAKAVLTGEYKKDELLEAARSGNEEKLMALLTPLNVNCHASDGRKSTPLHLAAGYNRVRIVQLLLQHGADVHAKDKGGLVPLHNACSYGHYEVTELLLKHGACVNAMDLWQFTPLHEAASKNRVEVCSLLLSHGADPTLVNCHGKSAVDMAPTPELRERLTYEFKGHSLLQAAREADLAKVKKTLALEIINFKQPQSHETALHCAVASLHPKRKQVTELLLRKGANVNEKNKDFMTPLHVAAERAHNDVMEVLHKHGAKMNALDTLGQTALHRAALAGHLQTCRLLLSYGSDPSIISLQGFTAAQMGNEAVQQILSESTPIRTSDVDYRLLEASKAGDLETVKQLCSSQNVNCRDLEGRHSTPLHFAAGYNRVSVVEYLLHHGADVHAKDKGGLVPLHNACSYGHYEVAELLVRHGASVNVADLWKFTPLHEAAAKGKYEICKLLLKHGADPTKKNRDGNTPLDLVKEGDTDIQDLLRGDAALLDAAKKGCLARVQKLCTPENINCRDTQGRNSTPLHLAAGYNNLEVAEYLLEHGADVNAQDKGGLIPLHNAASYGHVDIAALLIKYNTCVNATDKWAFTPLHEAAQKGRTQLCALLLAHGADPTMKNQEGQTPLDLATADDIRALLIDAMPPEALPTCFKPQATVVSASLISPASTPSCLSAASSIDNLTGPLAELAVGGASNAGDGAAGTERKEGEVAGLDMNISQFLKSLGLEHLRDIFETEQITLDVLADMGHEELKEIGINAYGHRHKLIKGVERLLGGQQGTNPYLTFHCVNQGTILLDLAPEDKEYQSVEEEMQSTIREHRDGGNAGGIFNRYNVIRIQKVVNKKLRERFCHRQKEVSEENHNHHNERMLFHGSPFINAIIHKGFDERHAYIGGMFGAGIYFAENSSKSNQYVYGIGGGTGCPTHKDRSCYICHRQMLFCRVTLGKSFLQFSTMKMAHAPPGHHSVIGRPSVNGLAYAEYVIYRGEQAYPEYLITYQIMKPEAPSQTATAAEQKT

[2] = target: T2, Poly [ADP-ribose] polymerase tankyrase-1 (Homo sapiens, UniProt O95271); assay: Inhibition of recombinant 6XHis-tagged TNKS1 (1091 to 1325) (unknown origin) after 60 mins by spectrophotometric analysis
T2 sequence (O95271 whole entry): T1 sequence (O95271 whole entry)

Tankyrase 1/2 [3] = target: T1, Tankyrase 1/2; assay: Inhibition of tankyrase in human DLD1 cells assessed as inhibition of Wnt gene transcription after 40 to 48 hrs by STF assay; assay type: cell-based; conditions: dld-1
Tankyrase 1/2 [4] = target: T1, Tankyrase 1/2; assay: Inhibition of tankyrase in human SW480 cells assessed as axin2 accumulation after 24 hrs by Hoechst dye-based assay; assay type: cell-based
[5] = target: Poly [ADP-ribose] polymerase 2 (Homo sapiens, UniProt Q9UGN5); assay: Inhibition of PARP2 (unknown origin)
[6] = target: Poly [ADP-ribose] polymerase 1 (Homo sapiens, UniProt P09874); assay: Inhibition of PARP1 (unknown origin)
Chain of Poly [ADP-ribose] polymerase 1 (P09874 whole entry): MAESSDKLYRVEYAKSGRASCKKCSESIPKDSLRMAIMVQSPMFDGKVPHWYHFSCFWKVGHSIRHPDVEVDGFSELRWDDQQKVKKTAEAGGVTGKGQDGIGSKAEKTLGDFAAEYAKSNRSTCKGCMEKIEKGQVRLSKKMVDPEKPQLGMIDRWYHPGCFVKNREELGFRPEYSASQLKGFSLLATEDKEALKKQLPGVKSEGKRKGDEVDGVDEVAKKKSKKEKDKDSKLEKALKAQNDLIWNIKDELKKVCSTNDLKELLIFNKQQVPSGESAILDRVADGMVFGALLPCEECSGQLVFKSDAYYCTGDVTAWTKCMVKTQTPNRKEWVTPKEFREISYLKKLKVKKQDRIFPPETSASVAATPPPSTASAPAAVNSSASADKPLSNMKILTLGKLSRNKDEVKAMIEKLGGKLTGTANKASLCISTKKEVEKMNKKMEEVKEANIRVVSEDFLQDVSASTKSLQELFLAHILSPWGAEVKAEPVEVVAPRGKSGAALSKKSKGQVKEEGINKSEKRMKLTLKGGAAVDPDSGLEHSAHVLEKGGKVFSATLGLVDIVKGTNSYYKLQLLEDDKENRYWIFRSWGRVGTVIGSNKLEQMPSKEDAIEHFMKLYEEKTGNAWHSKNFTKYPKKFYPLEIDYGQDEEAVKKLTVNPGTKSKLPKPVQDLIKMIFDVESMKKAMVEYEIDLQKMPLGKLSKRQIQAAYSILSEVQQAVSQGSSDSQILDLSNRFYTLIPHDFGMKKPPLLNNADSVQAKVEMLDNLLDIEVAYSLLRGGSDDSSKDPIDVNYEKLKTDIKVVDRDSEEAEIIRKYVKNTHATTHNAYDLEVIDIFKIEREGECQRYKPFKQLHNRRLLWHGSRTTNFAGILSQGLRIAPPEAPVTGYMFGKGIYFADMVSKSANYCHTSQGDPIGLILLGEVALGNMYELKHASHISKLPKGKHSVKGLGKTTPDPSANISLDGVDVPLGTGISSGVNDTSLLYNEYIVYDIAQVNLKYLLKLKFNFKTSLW

Chain of Poly [ADP-ribose] polymerase 2 (Q9UGN5 whole entry): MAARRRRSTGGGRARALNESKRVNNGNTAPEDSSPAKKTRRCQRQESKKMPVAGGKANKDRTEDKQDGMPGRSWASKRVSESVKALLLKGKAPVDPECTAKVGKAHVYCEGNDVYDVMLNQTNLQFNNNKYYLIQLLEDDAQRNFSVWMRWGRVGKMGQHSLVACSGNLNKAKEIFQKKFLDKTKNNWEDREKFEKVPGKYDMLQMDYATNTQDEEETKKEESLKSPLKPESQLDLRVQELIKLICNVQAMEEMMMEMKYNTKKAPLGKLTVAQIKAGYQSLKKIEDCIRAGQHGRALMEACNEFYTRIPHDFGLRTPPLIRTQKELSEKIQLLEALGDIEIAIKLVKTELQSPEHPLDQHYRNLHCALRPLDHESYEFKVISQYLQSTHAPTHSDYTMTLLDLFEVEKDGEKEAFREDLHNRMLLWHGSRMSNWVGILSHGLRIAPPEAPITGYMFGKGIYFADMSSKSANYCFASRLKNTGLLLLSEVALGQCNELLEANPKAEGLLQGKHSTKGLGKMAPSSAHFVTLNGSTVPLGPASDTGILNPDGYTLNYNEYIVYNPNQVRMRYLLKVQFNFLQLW

Compound | IC50 (Tankyrase 1/2 [1]) [nM] | IC50 [2] [nM] | IC50 (Tankyrase 1/2 [3]) [nM] | EC50 (Tankyrase 1/2 [4]) [nM] | IC50 [5] [nM] | IC50 [6] [nM]
CC1(C)CC(=O)Nc2cc(NC(=O)c3cc(-c4ccc5nc(N)ncc5c4)ccc3F)ccc21 | 2000 | 150 |  |  |  | 
CC1(C)OC(=O)N([C@H]2CC[C@H](c3ccc(N)nc3)CC2)[C@H]1c1ccccc1 |  | 148 |  |  |  | 
CC1(C)OC(=O)N([C@H]2CC[C@H](c3cnc(N)c(C#N)c3)CC2)[C@H]1c1ccccc1 | 392 | 9 | 43 | 474 | > 170000 | > 85000
